{
  "source": "patent US10045984B2",
  "about": "“Combination therapy” (priority 2008, dated 2018)",
  "key": {"[1]": {"test_system": "Influenza A, B and Rhino virus", "test": "Group B randomized double blind trial in uncomplicated viral upper respiratory tract infection, with case reports", "assay_type": "in vivo, human", "conditions": "for clinical state: influenza type B; for clinical state at day 5 after starting treatment: n=5 per group", "source_text": "RT-PCR (reverse transcriptase-PCR) was used for subtyping and for detection of rhinovirus. RT-PCR is done on swabs. In the case of the patient groups, RT-PCR determined the presence of subtypes influenza H3, rhino virus and RSV. IFA and RT-PCR was repeated after treatment to ensure viral eradication from the patient.\nGroup B patients included 20 patients, aged 19 years to 57 years, 14 men and 6 women, with influenza but uncomplicated upper airway infection. […] The viruses identified were Influenza A, B and Rhino virus.\nOn day 3-5 of the illness (influenza) they received either a zinc/trimethoprim mixture, zinc, trimethoprim alone or vitamin C alone in a randomized double blind trial. The subjects were reviewed at 2 and 5 days after starting treatment.\nThe Tri-Z dose ranged between 100 mg (82 mg Tri and 18 mg zinc) to 200 mg (164 mg Tri and 36 mg zinc) twice daily. Trimethoprim only was administered in quantities of between 100 mg and 200 mg twice daily. Zinc only was administered in quantities of 50 mg three times daily. Vitamin C was administered in 1 g quantities twice daily.\nPoints on the graph shown in FIG. 6 are group means (for n=5) which highlights the difference in illness duration. […] Repeat IFA and RT-PCR tests were negative by day 2.\n(i) person presented with headache, no photophobia, body ache, feeling tired and lethargic, blocked runny nose, dry throat and feeling hot for the last 4 days. Temperature was 38.5 C, respiratory rate 18/min, heart rate 75/min regular, BP 115/70 mmHg, clear nasal discharge, blood shot eyes, clear throat. Chest was clear with normal breath sounds. No cervical lymph nodes.\nNasal aspirate and throat swab was taken for virus and bacteria. […] Cultures were negative for bacterial growth at 48 and 72 hours.\nThey were commenced on the zinc/trimethoprim mixture twice daily (initial dose 200 mg of trimethoprim and 100 mg zinc sulphate for first dose then reduced to 100 mg of trimethoprim and 50 mg of zinc sulphate given simultaneously on an empty stomach) for 5 days.\n(ii) person presented with body ache, generally feeling tired, blocked runny nose, sore eyes, dry throat, headache and feeling hot for the last 4 days. Their temperature was 38 C. Their chest was clear with normal breath sounds. Respiratory rate 16/min, heart rate 84/min regular, BP 135/78 mmhg. Nasal aspirate and throat swabs was taken for virus and bacteria.\nBacterial culture at 48 and 72 hours were negative.\n(iii) person presented with feeling hot, blocked nose that is runny, headache, body ache, dry cough, sore eyes for last 4 days.\nTemperature was 38.5 C, heart rate 60/min, respiratory rate 16/min, BP 120/70 mmHg, chest clear with normal breath sounds, no lymphadenopathy, conjunctival congestion, throat clear.\nNasal aspirate and throat swab were taken for virus and bacteria. They were started on Trimethoprim 200 mg twice daily for 5 days."}, "viral replication": {"test_system": "viral replication", "conditions": "cited from earlier work"}, "[2]": {"conditions": "case (ii) person, day 5 after treatment"}},
  "data": [
    {"smiles": "COc1cc(Cc2cnc(N)nc2N)cc(OC)c1OC", "note": "[trimethoprim, 5-(3,4,5-trimethoxybenzyl)pyrimidine-2,4-diamine]", "values": [
      {"measurement": "nasal aspirate viral test", "setting": "[1]; case (iii) person, day 5 of treatment", "result": "influenza type B"},
      {"measurement": "temperature", "setting": "[1]; case (iii) person, day 5 of treatment, 38.5 C before", "result": 37.8, "unit": "C"},
      {"measurement": "clinical state", "setting": "[1]; case (iii) person, 200 mg twice daily, 2 days later", "result": "the same"},
      {"measurement": "day of the illness when recovery started", "setting": "[1]; case (iii) person, well enough to go back to work", "result": 14, "unit": "days"},
      {"measurement": "clinical state at day 5 after starting treatment", "setting": "[1]", "result": "not back to normal"}
    ]},
    {"smiles": "O=C1O[C@H]([C@@H](O)CO)C(O)=C1O", "note": "[vitamin C]", "values": [
      {"measurement": "clinical state at day 5 after starting treatment", "setting": "[1]", "result": "not back to normal"}
    ]},
    {"smiles": "O=S(=O)([O-])[O-].[Zn+2]", "note": "[zinc sulphate]", "values": [
      {"measurement": "repeat viral test", "setting": "[1]; case (ii) person, 2 days after treatment", "result": "influenza type B"},
      {"measurement": "control of symptoms", "setting": "[1]; [2]", "result": "ineffective"},
      {"measurement": "nasal aspirate viral test", "setting": "[1]; [2]", "result": "influenza type B"},
      {"measurement": "clinical state", "setting": "[1]; case (ii) person, 100 mg twice daily, 2 days after treatment", "result": "the same"},
      {"measurement": "day of the illness of return to work", "setting": "[1]; case (ii) person, still feeling unwell", "result": 14, "unit": "days"}
    ]},
    {"smiles": "[Zn]", "note": "[zinc]", "values": [
      {"measurement": "concentration in a subject that affects viral replication", "setting": "viral replication", "result": 0.05, "unit": "mMolar"},
      {"measurement": "clinical state at day 5 after starting treatment", "setting": "[1]", "result": "not back to normal"}
    ]}
  ]
}
